Data from the NIST ThermoML archive (doi:10.1021/je050367p).
± gives the expanded uncertainty stated by the source.

Assay: xn = mol fraction of the nth substance listed
Details: 100.5 kPa, Liquid; for viscosity: Capillary tube (Ostwald / Ubbelohde) method

CC(C)OC(C)C [diisopropyl ether] + CCO
Details | mass density, 288.15 K [kg/m3] | mass density, 298.15 K [kg/m3] | viscosity, 288.15 K [mPa·s] | viscosity, 298.15 K [mPa·s] | viscosity, 308.15 K [mPa·s]
x1 = 0.05 | 788.65 ± 0.23 | 779.96 ± 0.24 | 1.176 ± 0.009 | 0.975 ± 0.008 | 0.814 ± 0.008
x1 = 0.1 | 783.6 ± 0.24 | 774.78 ± 0.24 | 1.046 ± 0.008 | 0.875 ± 0.008 | 0.736 ± 0.007
x1 = 0.15 | 779.02 ± 0.24 | 770.05 ± 0.25 | 0.946 ± 0.008 | 0.793 ± 0.008 | 0.67 ± 0.007
x1 = 0.2 | 774.89 ± 0.24 | 765.79 ± 0.25 | 0.85 ± 0.008 | 0.719 ± 0.007 | 0.612 ± 0.007
x1 = 0.25 | 770.69 ± 0.25 | 761.45 ± 0.26 | 0.771 ± 0.008 | 0.656 ± 0.007 | 0.562 ± 0.007
x1 = 0.3 | 766.92 ± 0.25 | 757.63 ± 0.26 | 0.705 ± 0.007 | 0.603 ± 0.007 | 0.52 ± 0.007
x1 = 0.35 | 763.36 ± 0.26 | 753.93 ± 0.26 | 0.648 ± 0.007 | 0.558 ± 0.007 | 0.484 ± 0.007
x1 = 0.4 | 760.02 ± 0.26 | 750.47 ± 0.27 | 0.599 ± 0.007 | 0.519 ± 0.007 | 0.453 ± 0.007
x1 = 0.45 | 756.93 ± 0.26 | 747.28 ± 0.27 | 0.558 ± 0.007 | 0.486 ± 0.007 | 0.426 ± 0.007
x1 = 0.5 | 753.87 ± 0.27 | 744.13 ± 0.27 | 0.523 ± 0.007 | 0.458 ± 0.007 | 0.403 ± 0.007
x1 = 0.55 | 750.98 ± 0.27 | 741.18 ± 0.28 | 0.493 ± 0.007 | 0.432 ± 0.007 | –
x1 = 0.6 | 748.29 ± 0.27 | 738.39 ± 0.28 | 0.468 ± 0.007 | 0.412 ± 0.007 | –
x1 = 0.65 | 745.73 ± 0.27 | 735.73 ± 0.28 | 0.444 ± 0.007 | 0.392 ± 0.007 | –
x1 = 0.7 | 743.19 ± 0.28 | 733.1 ± 0.29 | 0.423 ± 0.007 | 0.376 ± 0.007 | –
x1 = 0.7499 | 740.73 ± 0.28 | 730.59 ± 0.29 | 0.407 ± 0.007 | 0.362 ± 0.007 | –
x1 = 0.8 | 738.4 ± 0.28 | 728.19 ± 0.29 | 0.392 ± 0.007 | 0.35 ± 0.007 | –
x1 = 0.85 | 735.94 ± 0.29 | 725.76 ± 0.29 | 0.378 ± 0.007 | 0.339 ± 0.006 | –
x1 = 0.9 | 733.6 ± 0.29 | 723.36 ± 0.3 | 0.367 ± 0.007 | 0.329 ± 0.006 | –
x1 = 0.95 | 731.15 ± 0.29 | 720.98 ± 0.3 | 0.357 ± 0.007 | 0.32 ± 0.006 | –
x1 = 1 | 729.09 ± 0.3 | 718.7 ± 0.3 | 0.348 ± 0.007 | 0.313 ± 0.006 | –
